# Source: a melting point compilation (Tetko et al.; mined from patent text by program, amines drawn as free bases though some values may be those of a salt)
# Residues, ends and D or L forms follow the SMILES beside them. *: point of attachment. Cbz = O=C(OCc1ccccc1)*
row,melting point [°C],Structure (SMILES)
1,201 to 202,CC1(C)CC(Nc2nc(NC3CC(C)(C)NC(C)(C)C3)nc(N(CO)C3CC(C)(C)NC(C)(C)C3)n2)CC(C)(C)N1
2,135 to 138,Cc1ccc2c(c1F)N(C1CC1)CNS2(=O)=O
3,206,O=C1c2ccccc2C(=O)N1CC(=O)N(CC(=O)n1ccnc1)c1ccccc1
4,201,Cc1cc(-c2cnn3c(C(F)(F)F)cc(-c4ccc(C(F)(F)F)c(OCC(F)(F)F)c4)nc23)ccn1
5,210 to 213,Cc1ccc(CCCc2c(C)nc(N)nc2N)cc1
6,175,Cc1nc2c(Cl)c(NC(=O)c3cc(Cl)ccc3Cl)ccc2s1
7,83 to 85,COC(=O)N1CCCC2CN(c3ccc(N4CC(CNC(C)=O)OC4=O)cc3F)CC21 (stereo not drawn)
8,135 to 136,CCn1ncc(N=O)c1N
9,164 to 168,CCNC(=NS(=O)(=O)c1cccc(C#N)c1)N1CC(CC)C=N1 (stereo not drawn)
10,176 to 184,CN1C(=O)N(c2c(Cl)cccc2Cl)Cc2cnc(N)nc21
11,151,O=C(COc1ccc2c(-c3ccccc3F)noc2c1Cl)NO
12,159 to 161,CC(C)(C)NCC(O)COc1ccc2c(=O)cc(-c3ccc(OCc4ccccc4)c(OCc4ccccc4)c3)oc2c1 (stereo not drawn)
13,176 to 187,OCCCc1cccc(CCCO)c1O
14,185 to 190,CN(C)C(=O)c1c(S(N)(=O)=O)ccn1C
15,279 to 280,CCC(C)(CC)c1nnc(NC(=O)c2c(OC)cccc2OC)[nH]1
16,137 to 138,CCCn1c(=O)c2[nH]c(CCCc3ccccc3)nc2n(CCC)c1=O
17,296 to 297,O=C1CCC(c2ccc(-n3cnc4c3CCCC4)cc2)=NN1
18,250 to 253,COc1ccccc1-c1ccc(C(=O)N2Cc3cccn3Cc3ccccc32)cc1
19,195 to 197,CCOC(=O)c1cn([C@@H](C)CO)c2c(F)c(N3CCN(C)CC3)c(F)cc2c1=O
20,186,CC(C)(C)OC(=O)N[C@@H](Cc1ccc(O)cc1)C(=O)NCC(=O)NCC(=O)Oc1c(Cl)c(Cl)c(Cl)c(Cl)c1Cl
21,173 to 174,CN(C)N(CCC(N)=O)C(N)=O
22,106 to 124,COC(=O)CN1CCN(C)c2cc(Nc3ncc(Cl)c(Nc4ccccc4NS(C)(=O)=O)n3)ccc2C1
23,81 to 82,O=C(c1cccnc1)N1CCC=N1

row,melting point [°C],Structure (SMILES)
1,123 to 125,CCN(CC)C(=O)COc1ccc(CCC(=O)NS(=O)(=O)CCC(C)C)c(Oc2ncc(C(F)(F)F)cc2Cl)c1
2,69 to 70,CN(C)CCCn1c(-c2ccc(Br)cc2)cc2c1CCCCC2
3,152 to 153,O=C(Nc1cccc(CN2CCCCC2)c1)C1=Cc2cc(-c3ccccc3)ccc2CC1
4,170 to 171,CCOC(=O)c1csc(-c2ccc3c(=O)n(CC(C)C)c(CNC(=O)OC(C)(C)C)c(-c4ccccc4)c3c2)n1
5,130,CCOC(=O)C1(S(=O)(=O)c2ccc(OC)cc2)CCN(Cc2ccc(-c3cccs3)cc2)CC1
6,121 to 122,COc1ccc(CCNc2nccc(-c3cccc(NC(=O)CCCN4C=CC=NC4)c3)n2)cc1OC
7,225,COc1ccc(N2CCN(c3ccc(NC(=O)NCC(OC)OC)cc3)CC2)cc1
8,244 to 246,Cc1cc(-c2nnc3c4ccccc4c(OCc4ccncc4)nn23)no1
9,89,O=C1NC(=O)C2CCCC12 (stereo not drawn)
10,183 to 184,c1ccc(Nc2nc(-c3ccco3)nc3ccccc23)cc1
11,211 to 213,Cn1c(=O)[nH]c2nc(C(F)(F)F)n(Cc3ccccc3)c2c1=O
12,159 to 161,COC(=O)C1CCC2C3CCC4CC(O)C(O)CC4(C)C3C(NCCC(C)C)CC12C (stereo not drawn)
13,157 to 159,Nc1nnc(N2CCN(C(=O)OCc3ccccc3)CC2)[nH]1
14,86 to 89,COc1ccccc1N1CCN(CC2(C)N=C(c3ccccc3)NC2=O)CC1 (stereo not drawn)
15,116 to 117,COC(=O)C1Cc2c(cccc2C(C)C)C(=O)CS1 (stereo not drawn)
16,127 to 129,Nc1c(I)cc(Cl)cc1I
17,157 to 158,CC(C)c1c(CO)n(-c2ccc(F)cc2)c(=O)c2ccccc12
18,245,Cc1cc(Br)cc(C(=O)O)c1N
19,160 to 162,COc1ccc(S(=O)(=O)c2ccc(OC)c3ccccc23)cc1
20,119 to 120,CCC(=O)c1sc(SC)c2c1CCc1cnn(C)c1-2
21,143 to 144,O=C1NCCc2sc3ccccc3c21
22,150,COc1c(C2CCN(CCCCNC(=O)c3c(C)nc(-c4ccc(Cl)cc4)n3C)CC2)ccc2c1CCCC2
23,138 to 139,COC(=O)c1cc(=O)c2cc(F)ccc2o1

row,melting point [°C],Structure (SMILES)
1,118 to 120,CCC(O)(CC)[C@@H]1C[C@@H]([C@H](CC2CCCCC2)NC(=O)OC(C)(C)C)OC1=O
2,250,CC1(C)Oc2ccc(Cl)cc2[C@@H](n2ccccc2=O)[C@@H]1O (relative stereo)
3,97 to 99.5,CC(C)(C)OC(=O)N(C(=O)OC(C)(C)C)C(Cc1c[nH]cn1)C(=O)OCc1ccccc1 (stereo not drawn)
4,209,Cc1nc(C[C@H]2OC[C@H](c3ccc(F)cc3)CO2)nc(C(=O)NCC(=O)O)c1O
5,193 to 195,c1ccc(CNc2nc(-n3cncn3)nc3ccccc23)cc1
6,158,COC(=O)c1ccc(NC(=O)c2sc3ccc(OC)cc3c2SC(C)C)cc1
7,94,O=c1cc(COC2CCCCO2)occ1O (stereo not drawn)
8,180 to 182,CC12CC(N3CCC4(CC3)OCCO4)C(O)CC1CCC1C2CCC2(C)C(O)C(N3CCC4(CC3)OCCO4)CC12 (stereo not drawn)
9,237 to 238,CC(C)n1nc(-c2sc(NC(=O)c3cccc(C(F)(F)F)c3)nc2-c2ccccc2)ccc1=O
10,118 to 119,CC(C)(C)c1cc(I)c(O)c(CNC(=O)C(F)(F)F)c1
11,311 to 312,O=C1N=C(N2CCCCC2)SC1=Cc1cccc(-c2ccc(O)c(C34CC5CC(CC(C5)C3)C4)c2)c1
12,104 to 106,CCOC(=O)c1cc(C(=O)OCC)c2c(Cl)cc(Cl)cc2n1
13,224 to 226,CN(C)c1cc(Cl)c2c(c1)NC(=O)C(C)(c1ccccc1)C2=O (stereo not drawn)
14,196 to 197,COC(=O)C(Cc1ccccc1)NC(=O)C(CC(N)=O)NC(=O)OCc1ccccc1 (stereo not drawn) (Cbz-Asn-Phe-OMe; configuration not given here)
15,100,COc1ccc(C(=O)Nc2ccc3ccc(Oc4ccc(F)cc4)nc3n2)cc1
16,218 to 219,CC(C)C(=O)Nc1nn(C)c2c1sc1c(Cl)cccc12
17,147 to 148,CCOC(=O)C1C(=O)N(c2ccc(Cl)c(Cl)c2)N=C1C (stereo not drawn)
18,149 to 150,CC(C)(C)c1ccc(C[C@@H](NC(=O)c2ccc(F)c3ccccc23)[C@@H](O)c2ccc(F)cc2)cc1 (racemic)
19,100 to 102,COCCOc1cc(N(C)S(=O)(=O)c2ccccn2)c2[nH]c(C3=NCC(CC(N)=O)S3)cc2c1 (stereo not drawn)
20,178 to 179,O=C(NC(Cc1ccc(OCc2ccccc2)cc1)C(=O)O)c1cn2nc(SCc3ccccc3)ccc2n1 (stereo not drawn)
21,106 to 108,O=C(O)CN1C(=O)OC[C@@H]1c1ccccc1
22,116 to 117,O=C(NC1C=NC=CC1=O)c1ccccc1F (stereo not drawn)
23,117 to 118,CCOC(=O)N1CCC(Oc2ccccc2)(c2ccccc2)CC1

row,melting point [°C],Structure (SMILES)
1,129,Cc1cccc(N2C(=S)SC(C)C2(C)O)n1 (stereo not drawn)
2,97 to 100,COc1ccc2c(c1)CCC1C2CCC2(C)C(OC(C)=O)=CCC12 (stereo not drawn)
3,132 to 133,O=[N+]([O-])c1ccc(-c2oncc2CCCO)cc1
4,88 to 90,COC(=O)c1cc(C2(c3ccc(F)c(-c4cncnc4)c3)N=C(N)N(C)C2=O)cn1CCF (stereo not drawn)
5,68 to 70,COC(=O)C(Cl)=Cc1ccc(OC)cc1
6,98 to 100,COc1c(Cl)cc(Cl)c(OC)c1C(=O)O
7,148,Cc1ccc(-c2cc(NCCNc3cc(-c4cccs4)[nH]n3)n[nH]2)cc1
8,107,O=C1C(CCC(O)c2ccc(F)cc2)C(c2ccc(-c3cccc(O)c3)cc2)N1c1ccc(F)cc1 (stereo not drawn)
9,210 to 211,O=c1ccc(S(=O)(=O)c2cc3ccccc3o2)n[nH]1
10,133 to 135,NNc1c([N+](=O)[O-])cnn1-c1c(Cl)cc(C(F)(F)F)cc1Cl
11,61 to 63,COC(=O)CCC(=O)c1ccc(C)cc1O
12,182 to 190,Cn1ccnc1Sc1ccc(Nc2c(C#N)cnc3cc(/C=C/CN4CCCC4)ccc23)cc1Cl
13,115 to 116,COc1ccc(C(C)(O)c2ocnc2C)cc1 (stereo not drawn)
14,80 to 82,CCCCCCCCCCCCNc1ccnc(Cl)n1
15,93 to 96,COc1cccc([C@@H](c2ccc(C3CN(CCC(=O)O)C3)cc2)N2C[C@@H](C)N(Cc3ccccc3)C[C@@H]2C)c1
16,84 to 85,COc1c([N+](=O)[O-])cc(C=O)c(Cl)c1OC(C)=O
17,115 to 116,CSc1nc(NS(=O)(=O)c2ccc(C(C)(C)C)cc2)c(-c2ccc(C)cc2)c(OCCOCc2ccccc2)n1
18,148 to 149,O=[N+]([O-])c1ccc(-c2nn(-c3ccccc3)cc2CO)o1
19,205 to 207,CNC(=O)Nc1cc(CNc2ncccc2C(=O)Nc2ccc3cn(C)nc3c2)ccn1
20,98,CCN(CC)C(=O)c1[nH]c2ccccc2c1CN(Cc1cc(C(F)(F)F)cc(C(F)(F)F)c1)c1nnn(C)n1
21,218,C1=Cc2ccc3c(c2CC1)=C1CC=c2ccccc2=C1N=3
22,81.5 to 82.5,COC(C)(C)C(=O)C(Oc1ccc(I)cc1)n1cncn1 (stereo not drawn)

row,Structure (SMILES),melting point [°C]
1,CC(C)(C)[C@H]1N(c2ccc(C#N)c3ccccc23)C(=O)[C@@H]2C[C@@H](OCc3ccccc3)CN21,155 to 157
2,CC12CCC3C(CC=C4C=C(N5CCCC5)CCC43C)C1CCC2=O (stereo not drawn),217 to 220
3,CSC(=S)NCc1c[nH]c2ccccc12,132 to 133
4,OC(c1ccccc1)C1CCCN1 (stereo not drawn),110
5,N#CC1(Nc2ccc(Cl)c(Cl)c2)CCN(C(=O)c2cc(C(F)(F)F)cc(C(F)(F)F)c2)CC1,195 to 197
6,C[C@]12CC[C@H](O)CC1=CCC1C2CC[C@@]2(C)C1CC[C@@H]2C1=CC(=O)OC1 (stereo partly drawn),286 to 287
7,CN1CCC(NC(=O)c2cccc(Cl)c2)C12CCCCC2 (stereo not drawn),121 to 122
